Results taken from ChEMBL document CHEMBL1158969, “Studies on the synthesis of sesquiterpene lactones, 12. Synthesis of (+)-colartin, (+)-arbusculin A, and their C-4 epimers and their biological activities” (1991).
The source made the active and inactive calls.

How the values were obtained:
Format in all cases: functional, organism-based
Cucumis sativus [1] = test: Growth regulatory activity on Cucumis sativus root assessed as complete inhibition of germination and seedling growth at 500 ppm after 10 days
Brassica juncea [2] = test: Growth regulatory activity on Brassica juncea root assessed as inhibition of germination and seedling growth at 500 ppm after 10 days
Brassica juncea [3] = test: Growth regulatory activity on Brassica juncea root assessed as complete inhibition of germination and seedling growth at 1000 ppm after 10 days
Cucumis sativus [4] = test: Growth regulatory activity on Cucumis sativus stem assessed as complete inhibition of germination and seedling growth at 1000 ppm after 10 days
Echinochloa frumentacea [5] = test: Growth regulatory activity on Echinochloa frumentacea stem assessed as inhibition of germination and seedling growth at 1000 ppm after 10 days
Cucumis sativus [6] = test: Growth regulatory activity on Cucumis sativus root assessed as inhibition of germination and seedling growth at 250 ppm after 10 days
Brassica juncea [7] = test: Growth regulatory activity on Brassica juncea stem assessed as inhibition of germination and seedling growth at 1000 ppm after 10 days
Echinochloa frumentacea [8] = test: Growth regulatory activity on Echinochloa frumentacea root assessed as inhibition of germination and seedling growth at 500 ppm after 10 days
Cucumis sativus [9] = test: Growth regulatory activity on Cucumis sativus stem assessed as inhibition of germination and seedling growth at 250 ppm after 10 days
Cucumis sativus [10] = test: Growth regulatory activity on Cucumis sativus root assessed as complete inhibition of germination and seedling growth at 1000 ppm after 10 days
Echinochloa frumentacea [11] = test: Growth regulatory activity on Echinochloa frumentacea root assessed as complete inhibition of germination and seedling growth at 1000 ppm after 10 days
Cucumis sativus [12] = test: Growth regulatory activity on Cucumis sativus root assessed as inhibition of germination and seedling growth at 1000 ppm after 10 days
Cucumis sativus [13] = test: Growth regulatory activity on Cucumis sativus root assessed as inhibition of germination and seedling growth at 500 ppm after 10 days
Cucumis sativus [14] = test: Growth regulatory activity on Cucumis sativus stem assessed as complete inhibition of germination and seedling growth at 500 ppm after 10 days
Cucumis sativus [15] = test: Growth regulatory activity on Cucumis sativus stem assessed as inhibition of germination and seedling growth at 1000 ppm after 10 days
Brassica juncea [16] = test: Growth regulatory activity on Brassica juncea stem assessed as complete inhibition of germination and seedling growth at 500 ppm after 10 days
Cucumis sativus [17] = test: Growth regulatory activity on Cucumis sativus root assessed as inhibition of germination and seedling growth at 100 ppm after 10 days
Brassica juncea [18] = test: Growth regulatory activity on Brassica juncea root assessed as inhibition of germination and seedling growth at 250 ppm after 10 days
Brassica juncea [19] = test: Growth regulatory activity on Brassica juncea stem assessed as complete inhibition of germination and seedling growth at 1000 ppm after 10 days
Brassica juncea [20] = test: Growth regulatory activity on Brassica juncea stem assessed as inhibition of germination and seedling growth at 250 ppm after 10 days
Echinochloa frumentacea [21] = test: Growth regulatory activity on Echinochloa frumentacea stem assessed as complete inhibition of germination and seedling growth at 1000 ppm after 10 days
Echinochloa frumentacea [22] = test: Growth regulatory activity on Echinochloa frumentacea stem assessed as inhibition of germination and seedling growth at 500 ppm after 10 days
Brassica juncea [23] = test: Growth regulatory activity on Brassica juncea root assessed as complete inhibition of germination and seedling growth at 500 ppm after 10 days
Cucumis sativus [24] = test: Growth regulatory activity on Cucumis sativus stem assessed as inhibition of germination and seedling growth at 100 ppm after 10 days
Cucumis sativus [25] = test: Growth regulatory activity on Cucumis sativus stem assessed as inhibition of germination and seedling growth at 500 ppm after 10 days
Echinochloa frumentacea [26] = test: Growth regulatory activity on Echinochloa frumentacea root assessed as inhibition of germination and seedling growth at 1000 ppm after 10 days
Brassica juncea [27] = test: Growth regulatory activity on Brassica juncea root assessed as inhibition of germination and seedling growth at 1000 ppm after 10 days

Measured: growth inhibition (GI)

C[C@@H]1C(=O)O[C@H]2[C@H]1CC[C@@]1(C)CC=C[C@@](C)(O)[C@H]21
active: Cucumis sativus [1] | Brassica juncea [2] | Brassica juncea [3] | Cucumis sativus [4] | Echinochloa frumentacea [5] | Cucumis sativus [6] | Brassica juncea [7] | Echinochloa frumentacea [8] | Cucumis sativus [9] | Cucumis sativus [10] | Echinochloa frumentacea [11]

CC1=CCC[C@]2(C)CC[C@@H]3[C@H](OC(=O)[C@H]3C)[C@@H]12
active: Cucumis sativus [12] | Cucumis sativus [13]

C=C1C(=O)O[C@@H]2[C@@H]3[C@](C)(CCC[C@@]3(C)O)CC[C@@H]12
active: Cucumis sativus [14] | Cucumis sativus [1] | Brassica juncea [3] | Cucumis sativus [6] | Echinochloa frumentacea [8] | Cucumis sativus [15] | Brassica juncea [16] | Cucumis sativus [17] | Brassica juncea [18] | Brassica juncea [19] | Brassica juncea [20] | Cucumis sativus [10] | Echinochloa frumentacea [21] | Echinochloa frumentacea [22] | Brassica juncea [23] | Cucumis sativus [24] | Echinochloa frumentacea [11]

C[C@@H]1C(=O)O[C@H]2[C@H]1CC[C@@]1(C)CC[C@@H](O)[C@@](C)(O)[C@H]21
active: Cucumis sativus [25] | Cucumis sativus [4] | Echinochloa frumentacea [5] | Echinochloa frumentacea [26] | Cucumis sativus [10] | Echinochloa frumentacea [22] | Brassica juncea [27] | Cucumis sativus [13]

C[C@@H]1C(=O)O[C@H]2[C@H]1CC[C@@]1(C)CCC[C@@](C)(O)[C@H]21
active: Cucumis sativus [1] | Cucumis sativus [25] | Brassica juncea [2] | Cucumis sativus [6] | Echinochloa frumentacea [8] | Cucumis sativus [15] | Cucumis sativus [9] | Brassica juncea [19] | Cucumis sativus [10] | Echinochloa frumentacea [21] | Echinochloa frumentacea [22] | Echinochloa frumentacea [11]
